# Reference: article PMC4424558, “Antimicrobial and antioxidant flavonoids from the leaves of Oncoba spinosa Forssk. (Salicaceae)” (BMC Complementary and Alternative Medicine, 2015)
# Where two headings read alike, the source gives them in different places.
# Experiments:
# Candida parapsilosis = test: Broth microdilution MIC/MFC against Candida parapsilosis; assay type: cell-based; conditions: Candida parapsilosis clinical isolate; for MIC: 37°C, 48 h
# Protocol: (§1) The studied microorganisms were both reference (from the American Type Culture Collection) and clinical (from Pasteur Institute Paris, France) strains of Enterobacter aerogenes, Escherichia coli, Klebsiella pneumoniae, Candida albicans, and Cryptococcus neoformans. Also, included were two clinical isolates of Candida parapsilosis and Staphylococcus aureus collected from Pasteur Centre (Yaoundé-Cameroon). The bacterial and fungal species were grown at 37°C and maintained on nutrient agar (NA, Conda, Madrid, Spain) and Sabouraud Dextrose Agar (SDA, Conda) slants respectively.
# (§2) The inocula of yeasts and bacteria were prepared from overnight cultures by picking numerous colonies and suspending them in sterile saline (NaCl) solution (0.90%). Absorbance was read at 530 nm for yeasts or at 600 nm for bacteria and adjusted with the saline solution to match that of a 0.50 McFarland standard solution. From the prepared microbial solutions, other dilutions with saline solution were prepared to give a final concentration of 10^6 yeast cells/ml and 10^6 CFU/ml for bacteria.
# (§3) The antimicrobial activity was investigated by determining the minimum inhibitory concentrations (MICs), minimum bactericidal concentrations (MBCs) and minimum fungicidal concentrations (MFCs).
# (§4) MICs were determined by broth micro dilution. Stock solutions of the tested samples were prepared in 10% v/v aqueous dimethylsulfoxide (DMSO) solution (Fisher chemicals, Strasbourg, France) at concentration of 4096 μg/ml. This was two-fold serially diluted in Mueller-Hinton Broth (MHB) for bacteria and Sabouraud Dextrose Broth (SDB) for fungi to obtain a concentration range of 2048 to 0.25 μg/ml. For every experiment, a sterility check (10% aqueous DMSO and medium), negative control (10% aqueous DMSO, medium and inoculum) and positive control (10% aqueous DMSO, medium, inoculum and water-soluble antibiotics) were included. One hundred microliters of each concentration was introduced into a well (96-wells microplate) containing 90 μl of SDB or MHB and 10 μl of inoculum was added to obtain a final concentration range of 4096 to 0.125 μg/ml. The plates were covered with a sterile lid, and incubated on the shaker at 37°C for 24 h (bacteria) and 48 h (yeasts). MICs were assessed visually after the corresponding incubation period and were taken as the lowest sample concentration at which there was no growth or virtually no growth. The assay was repeated thrice.
# (§5) The lowest concentration that yielded no growth after the sub-culturing was taken as the MBCs or MFCs. Chloramphenicol (Sigma-Aldrich, Steinheim, Germany) for bacteria and nystatin (Sigma-Aldrich, Steinheim, Germany) for yeasts were used as positive controls.
# [1] = Trolox equivalent antioxidant capacity (TEAC) assay; assay type: biochemical; conditions: ABTS/laccase, 420 nm, 230 s; 20 μg/ml isolated compounds, 10-400 μg/ml MeOH extract; gallic acid equivalents
# Protocol: The TEAC test was done as previously described with slight modifications. In a quartz cuvette, to 950 μl acetate buffer (pH = 5.0, 100 mM), the following were added: 20 μl laccase (1 mM stock solution), 20 μl test sample, 10 μl ABTS (2,2′-azinobis(3-ethylbenzothiazoline-6-sulfonic acid)) (74 mM stock solution). The laccase were purified from Sclerotinia sclerotiorum according to the protocol described. The sample concentrations in the assay mixture were 400, 200, 100, 10 μg/ml for the MeOH extract and 20 μg/ml for the isolated compounds. The content of the generated ABTS^●+ radical was measured at 420 nm after 230 s reaction time and was converted to gallic acid equivalents by the use of a calibration curve (Pearson’s correlation coefficient: r = 0.998) constructed with 0, 4, 10, 14, 28, 56, 84 μM gallic acid standards rather than Trolox. Experiments were done in triplicate.
# Staphylococcus aureus = test: Broth microdilution MIC/MBC against Staphylococcus aureus; assay type: cell-based; conditions: Staphylococcus aureus clinical isolate; for MIC: 37°C, 24 h
# Protocol: as §1, §2, §3, §4, §5
# [2] = system: Enterobacter aerogenes ATCC13048; test: Broth microdilution MIC/MBC against Enterobacter aerogenes ATCC13048; assay type: cell-based; conditions: for MBC / MIC: Klebsiella aerogenes; for MIC: 37°C, 24 h
# Protocol: as §1, §2, §3, §4, §5
# [3] = system: Klebsiella pneumoniae ATCC11296; test: Broth microdilution MIC/MBC against Klebsiella pneumoniae ATCC11296; assay type: cell-based; conditions: for MIC: 37°C, 24 h
# Protocol: as §1, §2, §3, §4, §5
# [4] = DPPH free radical scavenging assay; assay type: biochemical; conditions: 30 min, room temperature, 517 nm
# Protocol: The free radical scavenging activity of the MeOH extract as well as some of its isolated compounds was evaluated according to described methods with slight modifications. Briefly, the test samples, prior dissolved in DMSO (SIGMA) beforehand, were mixed with a 20 mg/l 2,2-diphenyl-1-picryl-hydrazyl (DPPH) methanol solution, to give final concentrations of 10, 50, 100, 500 and 1000 μg/ml. After 30 min at room temperature, the absorbance values were measured at 517 nm and converted into percentage of antioxidant activity. L-ascorbic acid was used as a standard control. The percentage of decolouration of DPPH (%) was calculated as follows: %decolourationofDPPH=Absorbanceofcontrol−Absorbanceoftestsample)×100/Absorbanceofcontrol
# The percentage of decolouration of DPPH (%) was plotted against the test sample. Also, the percentage of decolouration of DPPH was converted in probits. The probit values were plotted against the logarithmic values of concentrations of the test samples and a linear regression curve was established in order to calculate the EC50 (μg/ml), which is the amount of sample necessary to decrease by 50% the absorbance of DPPH [11]. All the analyses were carried out in triplicate.
# [5] = system: Cryptococcus neoformans IP 90526; test: Broth microdilution MIC/MFC against Cryptococcus neoformans IP 90526; assay type: cell-based; conditions: for MIC: 48 h
# Protocol: as §1, §2, §3, §4, §5
# [6] = system: bacterial and fungal species; test: Broth microdilution, all studied microorganisms (panel summary); assay type: cell-based; conditions: for studied microorganisms on which inhibitory effects were noted: out of 7 studied microorganisms
# Protocol: as §1, §2, §3, §4, §5
# fungi = test: Broth microdilution, fungal strains (panel summary); assay type: cell-based; conditions: for MIC (range over fungi): range over the fungal strains
# Protocol: as §1, §2, §3
# as §4, with “One hundred microliters of each concentration was introduced into a well (96-wells microplate) containing 90 μl of SDB or MHB and 10 μl of inoculum was added to obtain a final concentration range of 4096 to 0.125 μg/ml. The plates were covered with a sterile lid, and incubated on the shaker at 37°C for 24 h (bacteria) and 48 h (yeasts).” left out, “The assay was repeated thrice.” left out
# [7] = system: Escherichia coli ATCC8739; test: Broth microdilution MIC/MBC against Escherichia coli ATCC8739; assay type: cell-based; conditions: for MIC: 37°C, 24 h
# Protocol: as §1, §2, §3, §4, §5
# [8] = system: Candida albicans ATCC 9002; test: Broth microdilution MIC/MFC against Candida albicans ATCC 9002; assay type: cell-based; conditions: for MIC: 48 h
# Protocol: as §1, §2, §3, §4, §5
# bacteria = test: Broth microdilution, bacterial strains (panel summary); assay type: cell-based; conditions: range over the bacterial strains
# Protocol: as §1
# as §2, with “bacteria. […]” for “bacteria.”
# MICs were determined by broth micro dilution. […] MICs were assessed visually after the corresponding incubation period and were taken as the lowest sample concentration at which there was no growth or virtually no growth. […]
# [9] = Lodderomyces parapsilosis, read-out: MIC
# [10] = Lodderomyces parapsilosis, read-out: MFC
smiles,measurement,setting,value
"O=c1c(O)c(-c2ccc(O)c(O)c2)oc2cc(O)cc(O)c12 [Compound 2, quercetin]",MFC/MIC,Candida parapsilosis,1
same,MIC,Candida parapsilosis; [9],64 µg/mL
same,MFC,Candida parapsilosis; [10],64 µg/mL
same,Gallic acid equivalent antioxidant capacity (TEAC),[1],89.86 µg/mL
same,MBC,Staphylococcus aureus,> 256 µg/mL
same,MIC,Staphylococcus aureus,256 µg/mL
same,MBC/MIC,[2],1
same,MBC,[2],64 µg/mL
same,MIC,[2],64 µg/mL
same,MBC,[3],64 µg/mL
same,MBC/MIC,[3],1
same,MIC,[3],64 µg/mL
same,"EC50, concentration scavenging 50% of DPPH radical",[4],5.08 µg/mL
same,MFC/MIC,[5],1
same,MIC,"[5]; IP90526, 37°C, read-out: MIC",64 µg/mL
same,MFC,"[5]; IP90526, read-out: MFC",64 µg/mL
same,activity against all the microbial strains (in words),[6],active against all the microbial strains
same,studied microorganisms on which inhibitory effects were noted,[6],7/7
same,MIC (range over fungi),fungi,64 to 128 µg/mL
same,MBC,[7],256 µg/mL
same,MBC/MIC,[7],2
same,MIC,[7],128 µg/mL
same,MFC/MIC,[8],1
same,MIC,"[8]; ATCC9002, 37°C, read-out: MIC",128 µg/mL
same,MFC,"[8]; ATCC9002, read-out: MFC",128 µg/mL
"O=C(O)[C@H]1O[C@@H](Oc2cc(O)c3c(=O)cc(-c4ccc(O)cc4)oc3c2)[C@H](O)[C@@H](O)[C@@H]1O [Compound 3, apigenin-7-O-β-D-glucuronopyranoside]",MFC/MIC,Candida parapsilosis,2
same,MIC,Candida parapsilosis; [9],64 µg/mL
same,MFC,Candida parapsilosis; [10],128 µg/mL
same,MIC,Staphylococcus aureus,> 256 µg/mL
same,MBC/MIC,[2],1
same,MBC,[2],128 µg/mL
same,MIC,[2],128 µg/mL
same,MBC,[3],256 µg/mL
same,MBC/MIC,[3],1
same,MIC,[3],256 µg/mL
same,"EC50, concentration scavenging 50% of DPPH radical",[4],29.16 µg/mL
same,MFC/MIC,[5],1
same,MIC,"[5]; IP90526, 37°C, read-out: MIC",128 µg/mL
same,MFC,"[5]; IP90526, read-out: MFC",128 µg/mL
same,studied microorganisms on which inhibitory effects were noted,[6],4/7
same,MIC,[7],> 256 µg/mL
same,MIC,"[8]; ATCC9002, 37°C, read-out: MIC",> 256 µg/mL
"O=c1c(O[C@@H]2O[C@H](CO)[C@H](O)[C@H](O)[C@H]2O)c(-c2ccc(O)c(O)c2)oc2cc(O)cc(O)c12 [Compound 4, quercetin 3-O-β-D-galactopyranoside]",MFC/MIC,Candida parapsilosis,2
same,MIC,Candida parapsilosis; [9],128 µg/mL
same,MFC,Candida parapsilosis; [10],256 µg/mL
same,Gallic acid equivalent antioxidant capacity (TEAC),[1],72.95 µg/mL
same,MBC,Staphylococcus aureus,128 µg/mL
same,MBC/MIC,Staphylococcus aureus,1
same,MIC,Staphylococcus aureus,128 µg/mL
same,MBC/MIC,[2],2
same,MBC,[2],64 µg/mL
same,MIC,[2],32 µg/mL
same,MBC,[3],64 µg/mL
same,MBC/MIC,[3],2
same,MIC,[3],32 µg/mL
same,"EC50, concentration scavenging 50% of DPPH radical",[4],13.44 µg/mL
same,MFC/MIC,[5],1
same,MIC,"[5]; IP90526, 37°C, read-out: MIC",128 µg/mL
same,MFC,"[5]; IP90526, read-out: MFC",128 µg/mL
same,activity against all the microbial strains (in words),[6],active against all the microbial strains
same,studied microorganisms on which inhibitory effects were noted,[6],7/7
same,MBC,[7],128 µg/mL
same,MBC/MIC,[7],1
same,MIC,[7],128 µg/mL
same,MFC/MIC,[8],1
same,MIC,"[8]; ATCC9002, 37°C, read-out: MIC",256 µg/mL
same,MFC,"[8]; ATCC9002, read-out: MFC",256 µg/mL
"C[C@@H]1O[C@@H](OC[C@H]2O[C@@H](Oc3c(-c4ccc(O)c(O)c4)oc4cc(O)cc(O)c4c3=O)[C@H](O)[C@@H](O)[C@@H]2O)[C@H](O)[C@H](O)[C@H]1O [Compound 5, quercetin 3-O-α-L-rhamnopyranosyl (1 → 6) β-D-glucopyranoside]",MIC,Candida parapsilosis; [9],> 256 µg/mL
same,Gallic acid equivalent antioxidant capacity (TEAC),[1],78.35 µg/mL
same,MBC,Staphylococcus aureus,128 µg/mL
same,MBC/MIC,Staphylococcus aureus,2
same,MIC,Staphylococcus aureus,64 µg/mL
same,MBC/MIC,[2],1
same,MBC,[2],32 µg/mL
same,MIC,[2],32 µg/mL
same,MBC,[3],16 µg/mL
same,MBC/MIC,[3],2
same,MIC,[3],8 µg/mL
same,"EC50, concentration scavenging 50% of DPPH radical",[4],9.63 µg/mL
same,MIC (range over bacteria),bacteria,8 to 64 µg/mL
same,MIC,"[5]; IP90526, 37°C, read-out: MIC",> 256 µg/mL
same,studied microorganisms on which inhibitory effects were noted,[6],4/7
same,activity against fungal/yeast strains (in words),fungi; fungal strains,inactive
same,MBC,[7],64 µg/mL
same,MBC/MIC,[7],1
same,MIC,[7],64 µg/mL
same,MIC,"[8]; ATCC9002, 37°C, read-out: MIC",> 256 µg/mL
"O=C(N[C@H](CO)[C@H](O)c1ccc([N+](=O)[O-])cc1)C(Cl)Cl [chloramphenicol, Chloramphenicol, reference compound]",MBC,Staphylococcus aureus,64 µg/mL
same,MBC/MIC,Staphylococcus aureus,1
same,MIC,Staphylococcus aureus,64 µg/mL
same,MBC/MIC,[2],1
same,MBC,[2],64 µg/mL
same,MIC,[2],64 µg/mL
same,MBC,[3],16 µg/mL
same,MBC/MIC,[3],1
same,MIC,[3],16 µg/mL
same,MIC (range over bacteria),bacteria,16 to 64 µg/mL
same,MBC,[7],64 µg/mL
same,MBC/MIC,[7],1
same,MIC,[7],64 µg/mL
"C[C@@H]1[C@H](O)[C@@H](C)/C=C/C=C/CC/C=C/C=C/C=C/C=C/C(O[C@H]2O[C@H](C)[C@@H](O)[C@H](N)[C@@H]2O)CC2O[C@](O)(CC(O)C(O)CCC(O)CC(O)CC(O)CC(=O)O[C@H]1C)CC(O)C2C(=O)O (stereo partly drawn) [nystatin, reference compound]",MFC,Candida parapsilosis,256 µg/mL
same,MFC/MIC,Candida parapsilosis,1
same,MIC,Candida parapsilosis,256 µg/mL
same,MFC,[5],256 µg/mL
same,MFC/MIC,[5],2
same,MIC,[5]; 37°C,128 µg/mL
same,MIC (range over fungi),fungi,128 to 256 µg/mL
same,MFC,[8],128 µg/mL
same,MFC/MIC,[8],1
same,MIC,[8]; 37°C,128 µg/mL
"O=C1O[C@H]([C@@H](O)CO)C(O)=C1O [vitamin C, L-ascorbic acid, reference compound]","EC50, concentration scavenging 50% of DPPH radical",[4],4.72 µg/mL
